Reference: patent US20240287138A1, “CYCLIC PEPTIDES FOR INHIBITING TNF RECEPTOR 1 ACTIVITY” (Merck Sharp & Dohme LLC, priority 2023, published 2024)
Numbered stars: 1 amine (or outer) side, 2 acyl side, 3 side chain; on linkers, the order of the positions; unused ones are H or OH. Bridge positions count the residues as written; N and C are the ends. Square brackets hold non-standard residues; d marks the D form. Peptide text beside a SMILES is read from it. * marks the point of attachment. Trp(βS-Me,7-OMe) = COc1cccc2c([C@H](C)[C@H](N)C(=O)O)c[nH]c12; Phe(4-SO2NH2) = N[C@@H](Cc1ccc(S(N)(=O)=O)cc1)C(=O)O; Phe(4-CH2COOH) = N[C@@H](Cc1ccc(CC(=O)O)cc1)C(=O)O; Trp(4-Cl) = N[C@@H](Cc1c[nH]c2cccc(Cl)c12)C(=O)O; Trp(7-CN) = N#Cc1cccc2c(C[C@H](N)C(=O)O)c[nH]c12; Trp(7-Cl) = N[C@@H](Cc1c[nH]c2c(Cl)cccc12)C(=O)O; Phe(4-CONH2) = NC(=O)c1ccc(C[C@H](N)C(=O)O)cc1; Phe(4-COOH) = N[C@@H](Cc1ccc(C(=O)O)cc1)C(=O)O; Trp(7-aza) = N[C@@H](Cc1c[nH]c2ncccc12)C(=O)O; X10 = O=C([C@H](Cc1ccnc2ccccc12)N[*:1])[*:2]; Phe(4-CH2NH2) = NCc1ccc(C[C@H](N)C(=O)O)cc1; dPro(cis-4-NH2) = N[C@H]1CN[C@@H](C(=O)O)C1; Pip(5R-OH) = O=C(O)[C@@H]1CC[C@@H](O)CN1; αMeW = C[C@](N)(Cc1c[nH]c2ccccc12)C(=O)O; X1 = O=C([C@@H]1CC[C@H](N[*:1])C1)[*:2]; Pip(4-aza) = O=C(O)[C@@H]1CNCCN1; 4Pal = N[C@@H](Cc1ccncc1)C(=O)O; NMeE = CN[C@@H](CCC(=O)O)C(=O)O; dHyp = O=C(O)[C@H]1C[C@H](O)CN1; Pip = O=C(O)[C@@H]1CCCCN1; αMeS = C[C@](N)(CO)C(=O)O; Carboxymethyl = O=C(O)C*; Nle = CCCC[C@H](N)C(=O)O; Sar = CNCC(=O)O

Columns and labels:
[1] = target: T1, human TNFR1 extracellular domain (ECD) protein (Homo sapiens, UniProt P19438); test: SPR binding affinity to captured human TNFR1 ECD
T1 construct: HRV 3C protease cleavage site (C); 6His (C, cleaved yes); made in house; host or cells: Sf21 insect cells (baculovirus), secreted
T1 sequence (P19438 30-211): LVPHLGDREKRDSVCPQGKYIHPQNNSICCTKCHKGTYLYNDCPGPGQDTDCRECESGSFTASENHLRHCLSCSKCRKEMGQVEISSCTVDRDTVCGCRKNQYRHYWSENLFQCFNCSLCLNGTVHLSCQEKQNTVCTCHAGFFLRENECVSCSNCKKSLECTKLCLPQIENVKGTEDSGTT
In short: (§1)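 Peptide binding kinetics read by SPR in HEPES pH 7.4 running buffer with 2% DMSO, with TNFR2 ECD tested in parallel for off-target binding. Receptor ECDs, insect-cell expressed and biotinylated at C-terminal avi-tag, were captured via streptavidin. KA derived from association and dissociation rate constants.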

[2] = target: T2, human TNFR2 ECD protein (Homo sapiens, UniProt P20333); test: SPR off-target binding (selectivity) to human TNFR2 ECD
T2 construct: HRV 3C protease cleavage site (C); 6His (C, cleaved yes); made in house; host or cells: Sf21 insect cells (baculovirus), secreted
T2 sequence (P20333 23-257): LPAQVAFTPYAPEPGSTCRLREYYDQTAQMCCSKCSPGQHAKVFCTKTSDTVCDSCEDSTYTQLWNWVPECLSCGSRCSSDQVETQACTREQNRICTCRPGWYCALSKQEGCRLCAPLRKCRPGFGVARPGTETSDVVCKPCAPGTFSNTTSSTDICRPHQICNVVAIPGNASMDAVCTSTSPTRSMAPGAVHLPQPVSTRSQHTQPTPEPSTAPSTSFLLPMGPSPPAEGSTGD
In short: as §1

[3] = target: T3, TNFα-induced NF-κB signal transduction pathway (TNFR1 signaling) in THP-1 cells (Homo sapiens, UniProt P19438); test: THP-1 Lucia NF-κB reporter cell assay, inhibition of TNFα-induced NF-κB signaling; type: cell-based; conditions: THP-1 NF-κB Lucia reporter cells, 10 ng/mL TNFα, 16-18 h, secreted luciferase; read-out: THP-1 IC50
T3 sequence (P19438 30-455): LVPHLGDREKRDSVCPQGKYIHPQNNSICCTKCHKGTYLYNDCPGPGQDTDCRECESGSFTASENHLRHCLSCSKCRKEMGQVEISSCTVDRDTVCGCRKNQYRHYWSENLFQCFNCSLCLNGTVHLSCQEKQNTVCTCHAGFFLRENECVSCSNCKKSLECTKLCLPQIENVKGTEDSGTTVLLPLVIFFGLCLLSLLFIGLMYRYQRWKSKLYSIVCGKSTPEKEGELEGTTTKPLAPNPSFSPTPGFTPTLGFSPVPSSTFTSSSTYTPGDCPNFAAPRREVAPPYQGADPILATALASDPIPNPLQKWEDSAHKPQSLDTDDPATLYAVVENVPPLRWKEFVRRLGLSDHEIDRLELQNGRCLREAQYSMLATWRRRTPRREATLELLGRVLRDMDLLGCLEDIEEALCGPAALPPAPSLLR
In short: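 Inhibition of TNFR1-driven NF-κB activation was measured as luminescence of secreted reporter luciferase following overnight (16-18 h) stimulation with 10 ng/mL TNFα.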

`CCCC[C@@H]1NC(=O)CSC[C@@H](C(N)=O)NC(=O)[C@H]([C@@H](C)c2c[nH]c3c(OC)cccc23)NC(=O)CN(C)C(=O)[C@H](Cc2ccc(O)cc2)NC(=O)[C@H](Cc2ccc(C(N)=O)cc2)NC(=O)[C@](C)(CO)NC(=O)[C@H](Cc2c[nH]c3c(Cl)cccc23)NC(=O)[C@H](Cc2ccncc2)NC(=O)[C@H](CC(N)=O)NC(=O)[C@H]2C[C@@H](N)CN2C(=O)[C@H](Cc2c[nH]c3ncccc23)NC(=O)[C@@H]2CNCCN2C(=O)[C@H](Cc2ccncc2)NC1=O` [SEQ ID NO. 219] ({CH2CO}-[Nle][4Pal][Pip(4-aza)][Trp(7-aza)][dPro(cis-4-NH2)]N[4Pal][Trp(7-Cl)][αMeS][Phe(4-CONH2)]Y[Sar][Trp(βS-Me,7-OMe)]C-NH2; thioether N-14) showed a Kd [1] of 0.1 nM, a Kd [2] of over 1000 nM and an IC50 [3] of 1.6 nM.

`C[C@@]1(CO)NC(=O)[C@H](Cc2c[nH]c3ncccc23)NC(=O)[C@H](Cc2ccncc2)NC(=O)[C@H](CC(N)=O)NC(=O)[C@H]2CCCN2C(=O)[C@H](Cc2ccnc3ccccc23)NC(=O)[C@H](CO)NC(=O)[C@H](Cc2ccncc2)NC(=O)[C@H](CCC(N)=O)NC(=O)CSC[C@@H](C(N)=O)NC(=O)[C@H](Cc2c[nH]c3cccc(Cl)c23)NC(=O)[C@@H]2CCCN2C(=O)[C@H](Cc2ccc(O)cc2)NC(=O)[C@H](Cc2ccc(C(=O)O)cc2)NC1=O` [SEQ ID NO. 278] ({CH2CO}-Q[4Pal]S[X10][dP]N[4Pal][Trp(7-aza)][αMeS][Phe(4-COOH)]YP[Trp(4-Cl)]C-NH2; thioether N-14) was tested, and the Kd [1] was 12.8 nM, the Kd [2] was over 1000 nM and the IC50 [3] was 54.5 nM.

In the case of `CCCC[C@@H]1NC(=O)CSC[C@@H](C(N)=O)NC(=O)[C@H]([C@@H](C)c2c[nH]c3c(OC)cccc23)NC(=O)CN(C)C(=O)[C@H](Cc2ccc(O)cc2)NC(=O)[C@H](Cc2ccc(C(=O)O)cc2)NC(=O)[C@](C)(CO)NC(=O)[C@H](Cc2c[nH]c3c(Cl)cccc23)NC(=O)[C@H](Cc2ccc(CC(=O)O)cc2)NC(=O)[C@H](CC(N)=O)NC(=O)[C@H](CCC(=O)O)N(C)C(=O)[C@H](Cc2c[nH]c3ccccc23)NC(=O)[C@@H]2CCCCN2C(=O)[C@H](Cc2ccncc2)NC1=O` [SEQ ID NO. 212] ({CH2CO}-[Nle][4Pal][Pip]W[NMeE]N[Phe(4-CH2COOH)][Trp(7-Cl)][αMeS][Phe(4-COOH)]Y[Sar][Trp(βS-Me,7-OMe)]C-NH2; thioether N-14), the Kd [1] is reported as 0.5 nM, the Kd [2] is reported as over 1000 nM and the IC50 [3] is reported as 2.8 nM.

For `CCCC[C@@H]1NC(=O)[C@@H]2CC[C@@H](C2)NC(=O)[C@H]([C@@H](C)c2c[nH]c3c(OC)cccc23)NC(=O)CN(C)C(=O)[C@H](Cc2ccc(C(=O)O)cc2)NC(=O)[C@H](Cc2ccc(S(N)(=O)=O)cc2)NC(=O)[C@](C)(CO)NC(=O)[C@H](Cc2c[nH]c3c(C#N)cccc23)NC(=O)[C@H](Cc2ccc(C(=O)O)cc2)NC(=O)[C@H](CC(N)=O)NC(=O)[C@H]2C[C@H](OCC(=O)O)CN2C(=O)[C@H](Cc2c[nH]c3ncccc23)NC(=O)[C@@H]2CC[C@@H](O)CN2C(=O)[C@H](Cc2ccncc2)NC1=O` [SEQ ID NO. 4] (cyclo([4Pal][Pip(5R-OH)][Trp(7-aza)][dHyp](Carboxymethyl)N[Phe(4-COOH)][Trp(7-CN)][αMeS][Phe(4-SO2NH2)][Phe(4-COOH)][Sar][Trp(βS-Me,7-OMe)][X1][Nle])), the Kd [1] was 0.1 nM, the Kd [2] was over 1000 nM and the IC50 [3] was 0.5 nM.

`CCCC[C@@H]1NC(=O)CSC[C@@H](C(N)=O)NC(=O)[C@](C)(Cc2c[nH]c3ccccc23)NC(=O)CN(C)C(=O)[C@H](Cc2ccc(O)cc2)NC(=O)[C@H](Cc2ccc(CC(=O)O)cc2)NC(=O)[C@](C)(CO)NC(=O)[C@H](Cc2c[nH]c3c(Cl)cccc23)NC(=O)[C@H](Cc2ccncc2)NC(=O)[C@H](CC(N)=O)NC(=O)[C@H](CCC(=O)O)N(C)C(=O)[C@H](Cc2c[nH]c3ncccc23)NC(=O)[C@H](CO)NC(=O)[C@H](Cc2ccc(CN)cc2)NC1=O` [SEQ ID NO. 224] ({CH2CO}-[Nle][Phe(4-CH2NH2)]S[Trp(7-aza)][NMeE]N[4Pal][Trp(7-Cl)][αMeS][Phe(4-CH2COOH)]Y[Sar][αMeW]C-NH2; thioether N-14) showed a Kd [1] of 0.4 nM, a Kd [2] of over 1000 nM and an IC50 [3] of 4.8 nM.
